{
  "source": "paper PMC12128972",
  "about": "“TYRA-300, an FGFR3-selective inhibitor, promotes bone growth in two FGFR3-driven models of chondrodysplasia” (JCI Insight, 2025)",
  "key": {"[1]": {"system": "growth plate chondrocytes of Fgfr3^Y367C/+ mice", "assay": "Fgfr3Y367C/+ mice: histology and immunohistochemistry of distal femur growth plate (H&E, collagen type X, PCNA, HZC count)", "format": "in vivo, mouse", "procedure": "To understand the effects of TYRA-300 treatment on the growth plate cartilage and chondrocytes and the mechanism through which TYRA-300 increases bone growth, histological analysis of the femurs of Fgfr3^Y367C/+ mice was performed. […] Treatment also facilitated angiogenesis, deposition of bone matrix, and resorption of the cartilage. In addition, the overall structure of the growth plate was more organized after treatment with TYRA-300. […] The organization of the hypertrophic zone, with HZCs organized in columns, appeared similar in TYRA-300–treated Fgfr3^Y367C/+ mice and Fgfr3^+/+ mice. Within the hypertrophic zone of TYRA-300–treated mice, the HZCs were larger than in vehicle-treated mice.\nThe right femur and lumbar vertebrae segment L4–L6 were collected and fixed in 4% paraformaldehyde, decalcified with ethylenediaminetetraacetic acid (EDTA) 0.5 M (pH 8) for 2 or 3 weeks, and embedded in paraffin. Serial paraffin sections of 5 μm were stained with hematoxylin, eosin, and Safranin O. For immunohistochemistry, sections were labeled with antibodies against collagen type X (BIOCYC ref. [1]-CO097-05-RUO, 1:100 dilution), collagen type I (Novotec, 20151, dilution 1:1,000), pERK (Cell Signaling, 4370S, dilution 1:1,000), and PCNA (Abcam, GR3195972-6, 1:500 dilution) using the Dako Envision Kit. Images were captured with an Olympus PD70-IX2-UCB microscope and CellSens software (Olympus Life Science Solutions). Cells were counted using ImageJ software (NIH, Laboratory for Optical Computational Instrumentation)."}, "[2]": {"assay": "Pharmacokinetic study, single subcutaneous dose, plasma by LC-MS/MS", "format": "in vivo, mouse", "settings": "for plasma concentration, individual mice: 1.2 mg/kg s.c.", "procedure": "The pharmacokinetic profile of TYRA-300 in adult rats has been previously described ([31]). Because the FGFR3-driven skeletal dysplasia models are performed using neonatal mice, an experiment was designed to understand the pharmacokinetics of TYRA-300 at a relevant efficacious dose in male and female mice, ranging from 1 to 12 weeks of age. In this experiment, TYRA-300 plasma levels were measured following administration of a single 1.2 mg/kg subcutaneous dose. […] There was a similar AUCinf in 2-week-old mice (2,295 h × ng/mL). […] Cytochrome P450 enzymes are commonly responsible for the metabolism of TKIs. In mice, cytochrome P450s are not fully developed until the mice are at least 3 weeks of age ([33]), which may explain the higher level of TYRA-300 exposure in the younger mice.\nC57BL/6J (The Jackson Laboratory) mice were randomized to treatment groups according to body weight. Owing to the young age of some groups, a mixture of female and male mice was used. Depending on the age of mice, 3–8 mice per group were dosed with a single subcutaneous dose of TYRA-300 (1.2 mg/kg) and then blood was collected either serially at 3 different time points (if 4 weeks of age and older) or terminally at a single time point (if 1–3 weeks of age). Mouse plasma was harvested using lithium heparin tubes at 0.5, 1, 4, 6, 8, 12, and 24 hours after dosing. Compound concentration from plasma was detected using liquid chromatography with tandem mass spectrometry at Oakland Analytics."}, "[3]": {"system": "Fgfr3^N534K/+ mouse model of HCH", "assay": "Fgfr3N534K/+ mice: long bone length", "format": "in vivo", "settings": "2.4 mg/kg dose, data not shown"}, "[4]": {"settings": "1.2 mg/kg single s.c., 1-week-old mice"}},
  "note": "Several values for one entry are separate records, joined by “and”; a condition that tells them apart may be missing. Equal entries are not always repeated.",
  "data": [
    {"smiles": "C[C@@H](Oc1ccc2[nH]nc(-c3ccc(N4CC5(C4)CN(S(C)(=O)=O)C5)nc3)c2c1)c1c(Cl)cncc1Cl", "note": "[TYRA-300]", "values": [
      {"measurement": "expression of PCNA in distal femoral growth plate", "setting": "[1]; 1.2 mg/kg s.c. daily for 15 days", "result": "a more well-defined positive zone within the growth plate"},
      {"measurement": "number of HZCs within the ROI vs vehicle", "setting": "[1]; 1.2 mg/kg s.c. daily for 15 days, distal femur", "result": "significant decrease"},
      {"measurement": "type X collagen staining in the HZCs", "setting": "[1]; present study", "result": "partial restoration"},
      {"measurement": "plasma concentration, individual mice", "setting": "[2]; 1 week old, 12 h, LLOQ 4 ng/mL", "result": "37.7 ng/mL and 35.7 ng/mL and 49.1 ng/mL"},
      {"measurement": "plasma concentration, individual mice", "setting": "[2]; 1 week old, 24 h, LLOQ 4 ng/mL", "result": "4 ng/mL (2×) and 5.11 ng/mL"},
      {"measurement": "plasma concentration, individual mice", "setting": "[2]; 1 week old, time 0 h, LLOQ 4 ng/mL", "result": 4, "unit": "ng/mL"},
      {"measurement": "plasma concentration, individual mice", "setting": "[2]; 2 weeks old, 0.5 h, LLOQ 8 ng/mL", "result": "276 ng/mL and 247 ng/mL and 312 ng/mL"},
      {"measurement": "plasma concentration, individual mice", "setting": "[2]; 2 weeks old, 1 h, LLOQ 8 ng/mL", "result": "442 ng/mL and 320 ng/mL and 190 ng/mL"},
      {"measurement": "plasma concentration, individual mice", "setting": "[2]; 2 weeks old, 4 h, LLOQ 8 ng/mL", "result": "196 ng/mL and 308 ng/mL and 157 ng/mL"},
      {"measurement": "plasma concentration, individual mice", "setting": "[2]; 2 weeks old, 6 h, LLOQ 8 ng/mL", "result": "148 ng/mL and 144 ng/mL and 232 ng/mL"},
      {"measurement": "plasma concentration, individual mice", "setting": "[2]; 2 weeks old, 8 h, LLOQ 8 ng/mL", "result": "50.3 ng/mL and 95.4 ng/mL and 202 ng/mL"},
      {"measurement": "plasma concentration, individual mice", "setting": "[2]; 2 weeks old, 12 h, LLOQ 8 ng/mL", "result": "42.2 ng/mL and 29.1 ng/mL and 34.4 ng/mL"},
      {"measurement": "plasma concentration, individual mice", "setting": "[2]; 2 weeks old, 24 h, LLOQ 8 ng/mL", "result": "8 ng/mL and 10.2 ng/mL and 8.27 ng/mL"},
      {"measurement": "plasma concentration, individual mice", "setting": "[2]; 2 weeks old, time 0 h, LLOQ 8 ng/mL", "result": 8, "unit": "ng/mL"},
      {"measurement": "plasma concentration, individual mice", "setting": "[2]; 3 weeks old, 0.5 h, LLOQ 8 ng/mL", "result": "250 ng/mL and 248 ng/mL and 229 ng/mL and 221 ng/mL"},
      {"measurement": "plasma concentration, individual mice", "setting": "[2]; 3 weeks old, 1 h, LLOQ 8 ng/mL", "result": "293 ng/mL and 238 ng/mL and 250 ng/mL and 251 ng/mL"},
      {"measurement": "plasma concentration, individual mice", "setting": "[2]; 3 weeks old, 4 h, LLOQ 8 ng/mL", "result": "10.2 ng/mL and 12.5 ng/mL and 17.9 ng/mL and 9.9 ng/mL"},
      {"measurement": "plasma concentration, individual mice", "setting": "[2]; 3 weeks old, 6 h, LLOQ 8 ng/mL", "result": "8 ng/mL (3×) and 15 ng/mL"},
      {"measurement": "plasma concentration, individual mice", "setting": "[2]; 3 weeks old, 8 h, LLOQ 8 ng/mL", "result": 8, "unit": "ng/mL"},
      {"measurement": "plasma concentration, individual mice", "setting": "[2]; 3 weeks old, 12 h, LLOQ 8 ng/mL", "result": "8 ng/mL (3×) and 9.31 ng/mL"},
      {"measurement": "plasma concentration, individual mice", "setting": "[2]; 3 weeks old, 24 h, LLOQ 8 ng/mL", "result": 8, "unit": "ng/mL"},
      {"measurement": "plasma concentration, individual mice", "setting": "[2]; 3 weeks old, time 0 h, LLOQ 8 ng/mL", "result": 8, "unit": "ng/mL"},
      {"measurement": "plasma concentration, individual mice", "setting": "[2]; 4 weeks old, 0.5 h, LLOQ 8 ng/mL", "result": "102 ng/mL and 115 ng/mL and 172 ng/mL and 145 ng/mL and 197 ng/mL"},
      {"measurement": "plasma concentration, individual mice", "setting": "[2]; 4 weeks old, 1 h, LLOQ 8 ng/mL", "result": "169 ng/mL and 242 ng/mL and 178 ng/mL and 48 ng/mL"},
      {"measurement": "plasma concentration, individual mice", "setting": "[2]; 4 weeks old, 4 h, LLOQ 8 ng/mL", "result": "39 ng/mL and 12 ng/mL (2×) and 10 ng/mL"},
      {"measurement": "plasma concentration, individual mice", "setting": "[2]; 4 weeks old, 6 h, LLOQ 8 ng/mL", "result": "8 ng/mL (3×) and 16 ng/mL"},
      {"measurement": "plasma concentration, individual mice", "setting": "[2]; 4 weeks old, 8 h, LLOQ 8 ng/mL", "result": 8, "unit": "ng/mL"},
      {"measurement": "plasma concentration, individual mice", "setting": "[2]; 4 weeks old, 12 h, LLOQ 8 ng/mL", "result": 8, "unit": "ng/mL"},
      {"measurement": "plasma concentration, individual mice", "setting": "[2]; 4 weeks old, 24 h, LLOQ 8 ng/mL", "result": 8, "unit": "ng/mL"},
      {"measurement": "plasma concentration, individual mice", "setting": "[2]; 4 weeks old, time 0 h, LLOQ 8 ng/mL", "result": 8, "unit": "ng/mL"},
      {"measurement": "plasma concentration, individual mice", "setting": "[2]; 6 weeks old, 0.5 h, LLOQ 8 ng/mL", "result": "150 ng/mL and 198 ng/mL and 171 ng/mL and 172 ng/mL"},
      {"measurement": "plasma concentration, individual mice", "setting": "[2]; 6 weeks old, time 0 h, LLOQ 8 ng/mL", "result": 8, "unit": "ng/mL"},
      {"measurement": "AUCinf of 3- through 12-week-old mice, times lower than average of 1- and 2-week-old mice", "setting": "[2]; 1.2 mg/kg single s.c.", "result": "about 3.8 times"},
      {"measurement": "maximum observed concentration", "setting": "[2]; [4]", "result": 287, "unit": "ng/mL"},
      {"measurement": "mean AUCinf", "setting": "[2]; [4]", "result": "1,789 h*ng/mL"},
      {"measurement": "mean AUCinf", "setting": "[2]; 1.2 mg/kg single s.c., 2-week-old mice", "result": "2,295 h*ng/mL"},
      {"measurement": "average AUCinf", "setting": "[2]; 1.2 mg/kg single s.c., 3- through 12-week-old mice", "result": 538, "unit": "ng·h/mL"},
      {"measurement": "phenotypic observations in preliminary dose exploration", "setting": "[3]", "result": "phenotypic signs consistent with the Fgfr3^–/– model were observed"}
    ]}
  ]
}
